Test results published in patent US20100311580A1, “Active Compound Combinations” (Bayer CropScience AG, priority 2007, published 2010).

Columns and labels:
Format in all cases: in vivo
Phaedon cochleariae = Phaedon cochleariae test (spray on cabbage leaves); settings: larvae
Protocol: Solvent: 7 parts by weight of dimethylformamide
Emulsifier: 2 parts by weight of alkylaryl polyglycolether
(§1) To produce a suitable preparation of active compound, 1 part by weight of active compound is mixed with the stated amount of solvent and emulsifier, and the concentrate is diluted with emulsifier-containing water to the desired concentration.
Cabbage leaves (Brassica oleracea) are treated by being sprayed with the preparation of the active compound at the desired concentration and are infested with larvae of the mustard beetle (Phaedon cochleariae) as long as the leaves are still moist.
After the specified period of time, the mortality in % is determined. 100% means that all the beetle larvae have been killed; 0% means that none of the beetle larvae have been killed.

Nilaparvata lugens = Nilaparvata lugens test (spray on rice plants); settings: larvae
Protocol: Solvent: 7 parts by weight of dimethylformamide Emulsifier: 2 parts by weight of alkylaryl polyglycolether
as §1
Rice plants (Oryza sativa) are treated by being sprayed with the preparation of the active compound at the desired concentration and are infested with larvae of the Brown plant hopper (Nilaparvata lugens) as long as the leaves are still moist.
After the specified period of time, the mortality in % is determined. 100% means that all the hopper larvae have been killed; 0% means that none of the hopper larvae have been killed.

[1] = test system: Blumeria graminis f. sp. hordei; experiment: Blumeria test (barley)/SAR 5d; settings: 1000 ppm, inoculation 5 days after spraying, evaluated 7 days after inoculation
Protocol: Solvent: 50 parts by weight of n,n-dimethylacetamid Emulsifier: 1 part by weight of alkylaryl polyglycol ether
To produce a suitable preparation of active compound, 1 part by weight of active compound or active compound combination is mixed with the stated amounts of solvent and emulsifier, and the concentrate is diluted with water to the desired concentration.
To test for systemic activated resistance, young plants are sprayed with the preparation of active compound or active compound combination at the stated rate of application. After the spray coating has dried on, the plants are placed in a greenhouse at a temperature of approximately 18° C. and a relative atmospheric humidity of approximately 80%.
5 days after spraying, the plants are dusted with spores of Blumeria graminis f. sp. hordei. The plants then remain in a greenhouse at a temperature of approximately 18° C. and a relative atmospheric humidity of approximately 80% to promote the development of mildew pustules.
The test is evaluated 7 days after the inoculation, 1. and 2. leaf separated. 0% means an efficacy with corresponds to that of the control while an efficacy of 100% means that no disease is observed.

| SMILES | Efficacy in % after 3 d (mortality) (Phaedon cochleariae; 4 ppm) [%] | Efficacy in % ([1]; 1st leaf) [%] | Efficacy in % ([1]; 2nd leaf) [%] | also measured |
| --- | --- | --- | --- | --- |
| N#C/N=C1\SCCN1Cc1ccc(Cl)nc1 [Thiacloprid, thiacloprid] | 5 |  |  |  |
| O=[N+]([O-])NC1=NCCN1Cc1ccc(Cl)nc1 [Imidacloprid, imidacloprid] |  |  |  | Efficacy in % after 3 d (mortality) (Nilaparvata lugens; 0.8 ppm): 0% |
| CN/C(=N\[N+](=O)[O-])NCc1cnc(Cl)s1 [Clothianidin, clothianidin] | 15 |  |  |  |
| Cc1cc(C(F)(C(F)(F)F)C(F)(F)F)ccc1NC(=O)c1cccc(I)c1C(=O)NC(C)(C)CS(C)(=O)=O [Flubendiamide, flubendiamide] | 0 | 22 | 22 | Efficacy in % after 3 d (mortality) (Nilaparvata lugens; 0.16 ppm): 0%; Efficacy in % after 3 d (mortality) (Phaedon cochleariae; 0.8 ppm): 0%; Efficacy in % after 6 d (mortality) (Phaedon cochleariae; 4 ppm): 0% |
| N#Cc1ccccc1NC(=O)c1snc(Cl)c1Cl [Isotianil, 3,4-dichloro-N-(2-cyanophenyl)-5-isothiazolecarboxamide] |  | 44 | 44 | Efficacy in % after 3 d (mortality) (Nilaparvata lugens; 200 ppm): 0%; Efficacy in % after 3 d (mortality) (Phaedon cochleariae; 200 ppm): 0%; Efficacy in % after 6 d (mortality) (Phaedon cochleariae; 200 ppm): 0% |
